Patent US20230293487A1, “ANTI-INFLAMMATORY COMPOSITION COMPRISING BENZOFURAN-BASED N-ACYLHYDRAZONE DERIVATIVES” (KOREA RESEARCH INSTITUTE OF BIOSCIENCE AND BIOTECHNOLOGY, priority 2020, published 2023)

What was measured:
NF-κB [1] = experiment: NF-κB luciferase reporter assay, TNF-α induced (Test Example 1); assay type: cell-based; conditions: Homo sapiens; HEK293, NF-κB luciferase vector, 10 ng/ml TNF-α, 1 uM compound; FIG. 1; read-out: NF-κB activity inhibited (reporter activity)
Experimental: The cultured human-derived HEK293 cell line was transfected with the NF-κB luciferase (reporter) vector, and treated with 10 ng/ml of TNF-α to induce activation of the NF-κB signaling pathway. In addition, during the above process, 1 uM of each of 9 kinds of compounds represented by [Chemical Formula 1] was treated to measure the inhibitory effect of the NF-κB-mediated inflammatory response regulatory pathway. Specifically, the relative expression level of NF-κB was confirmed.

[2] = test system: mice (oxazolone-induced skin inflammation); experiment: Oxazolone-induced skin inflammation in mouse ears (Test Example 4): naked eye, H&E staining, immune cell count; assay type: in vivo; conditions: compound 20 μl at 500 nM, 5 applications; for number of inflammatory immune cells in skin: counted from H&E pictures, FIG. 6; for skin condition of ears confirmed with naked eye / thickness of the entire skin and epithelium (H&E staining): oxazolone on mouse ears; for skin condition of ears confirmed with naked eye: FIG. 4; for thickness of the entire skin and epithelium (H&E staining): FIG. 5
Experimental: 3% Oxazolone (150 μl) was applied to the abdominal skin of 6-week-old mice to induce an immune response, and 0.5% diluted oxazolone (20 μl) was applied to the ears of mice a total of 5 times at intervals of one day to induce an inflammatory response. After 30 minutes of oxazolone application, Example 4 (CAP-1042) or Example 12 (CAP-1047) was applied a total of 5 times in an amount of 20 μl each at a concentration of 500 nM each.
The number of mice in each experimental group was maintained at 10 or more, and the experiment was repeated twice in total.
Specifically, after H&E staining (FIG. 5), photographs of at least 10 different parts of each sample were taken evenly under a microscope. Then, the number of inflammatory immune cells stained in dark red was directly counted from the pictures taken, and the average value was calculated.

[3] = test system: mice (LPS-induced sepsis); experiment: LPS-induced sepsis (cytokine storm-like) model (Test Example 7); assay type: in vivo; conditions: LPS intraperitoneal, drug intravenous; FIG. 11B
Experimental: Since there were no disease model animals leading to death from a cytokine storm caused by coronaviruses, particularly Sars-Cov2, the present inventors used an acute sepsis model in which an acute inflammatory response is induced to cause the cytokine storm problem and confirmed inhibition of the cytokine storm, the possibility of treating severe acute respiratory syndrome coronavirus 2 infection disease and the possibility of treating sepsis.
An experiment was performed by treating LPS on an animal model (cytokine storm-like model) of sepsis (death). Mice were intraperitoneally administered with LPS for induction of sepsis and injected intravenously with the drug (Example 4), and then blood was collected at 3, 6, and 12 hours. The survival rate was confirmed for 48 hours to observe mortality due to sepsis.

NF-κB [4] = experiment: NF-κB luciferase assay, luminometer (Test Example 3); assay type: cell-based, human; conditions: HEK293, 1 uM compound, 10 ng/ml TNF-α; FIG. 3
Experimental: HEK293 cell line, a human-derived embryonic kidney cell line, was cultured, transfected with NF-κB luciferase vector, treated with 1 uM of the compound, and then treated with 10 ng/ml of TNF-α to induce the NF-κB pathway. Luciferase assay method was performed to quantitatively measure the effect on NF-κB gene expression using a luminometer.

P-p65 protein = experiment: Western blotting of NF-κB canonical pathway, induced with TNF-α (Test Example 5); assay type: cell-based; conditions: TNFα induction, own compound used = Example 4 (1042), b448, FIG. 8
Excerpt: (§1) The NF-κB signaling pathway is largely divided into canonical and non-canonical pathways. In the canonical pathway, when an inflammatory response is induced by treatment with TNF-α, the amount of P-p65 protein, which is a phosphorylated product of p65 protein, increases and migrates into the nucleus, inducing an inflammatory response. In the non-canonical pathway, when an inflammatory response is induced with a LIGHT compound that activates the non-canonical NF-κB pathway, the p100 protein is converted into p52 protein through processing and migrates into the nucleus to induce an inflammatory response. […] Specifically, in order to confirm whether the activation of NF-κB signaling pathways (canonical and non-canonical pathways) is regulated, the regulation of phosphorylated p65 and p100 proteins, which are major signal regulating molecules, was confirmed using Western blotting. In the present experiment, the compound of Example 4 (1042) was used as the compound according to the present disclosure.

p100 protein = experiment: Western blotting of NF-κB non-canonical pathway, induced with LIGHT (Test Example 5); assay type: cell-based; conditions: LIGHT induction, own compound used = Example 4 (1042), b448, FIG. 8
Excerpt: as §1

Molecule: Cc1ccc2oc(C(=O)N/N=C/c3c(Cl)[nH]c4ccccc34)cc2c1 [Example 1, (E)-N′-[(2-chloro-1H-indol-3-yl)methylene]-5-methylbenzofuran-2-carbohydrazide]
- inhibition at 1 µM (NF-κB [1]): ≥ 50%

Molecule: CCOCCn1c(Cl)c(/C=N/NC(=O)c2cc3cc(C)ccc3o2)c2ccccc21 [Example 4, (E)-N′-[(2-chloro-1-(2-ethoxyethyl)-1H-indol-3-yl]methylene}-5-methylbenzofuran-2-carbohydrazide]
- number of inflammatory immune cells in skin [2]: reduced the number of immune cells induced by the inflammatory reaction to the extent very similar to that of the normal case treated with ethanol
- skin condition of ears confirmed with naked eye [2]: skin conditions very similar to those of normal animals treated with ethanol
- thickness of the entire skin and epithelium (H&E staining) [2]: reduced to the extent very similar to that of the normal skin treated with ethanol
- inhibition at 1 µM (NF-κB [1]): ≥ 50%
- mortality due to sepsis (survival rate after 48 hours) [3]: significantly reduced mortality due to sepsis
- expression amount of the NF-κB gene (luciferase) (NF-κB [4]): significantly decreased

Molecule: CCOCCn1c(Cl)c(/C=N/NC(=O)c2cc3cc(C)ccc3o2)c2cc(OC)ccc21 [Example 8, (E)-N′-[(2-chloro-1-(2-ethoxyethyl)-5-methoxy-1H-indol-3-yl]methylene}-5-methylbenzofuran-2-carbohydrazide]
- inhibition at 1 µM (NF-κB [1]): ≥ 50%

Molecule: CCOCCn1c(Cl)c(/C=N/NC(=O)c2cc3cc(C)ccc3o2)c2ccc(OC)cc21 [Example 9, (E)-N′-[(2-chloro-1-(2-ethoxyethyl)-6-methoxy-1H-indol-3-yl]methylene}-5-methylbenzofuran-2-carbohydrazide]
- inhibition at 1 µM (NF-κB [1]): ≥ 50%

Molecule: CCOCCn1c(Cl)c(/C=N/NC(=O)c2cc3cc(C)ccc3o2)c2cc(F)ccc21 [Example 10, (E)-N′-[(2-chloro-1-(2-ethoxyethyl)-5-fluoro-1H-indol-3-yl]methylene}-5-methylbenzofuran-2-carbohydrazide]
- inhibition at 1 µM (NF-κB [1]): ≥ 50%
- expression amount of the NF-κB gene (luciferase) (NF-κB [4]): significantly decreased

Molecule: CCOCCn1c(Cl)c(/C=N/NC(=O)c2cc3cc(C)ccc3o2)c2cc(Cl)ccc21 [Example 11, (E)-N′-[(2,5-dichloro-1-(2-ethoxyethyl)-1H-indol-3-yl]methylene}-5-methylbenzofuran-2-carbohydrazide]
- inhibition at 1 µM (NF-κB [1]): ≥ 50%
- expression amount of the NF-κB gene (luciferase) (NF-κB [4]): significantly decreased

Molecule: CCOCCn1c(Cl)c(/C=N/NC(=O)c2cc3cc(C)ccc3o2)c2cc(OC(F)(F)F)ccc21 [Example 12, (E)-N′-[(2-chloro-1-(2-ethoxyethyl)-5-(trifluoromethoxy)-1H-indol-3-yl]methylene}-5-methylbenzofuran-2-carbohydrazide]
- skin condition of ears confirmed with naked eye [2]: skin conditions very similar to those of normal animals treated with ethanol
- thickness of the entire skin and epithelium (H&E staining) [2]: reduced to the extent very similar to that of the normal skin treated with ethanol
- inhibition at 1 µM (NF-κB [1]): ≥ 50%
- expression amount of the NF-κB gene (luciferase) (NF-κB [4]): significantly decreased

Molecule: CCOCCn1c(Cl)c(/C=N/NC(=O)c2cc3cc(C)ccc3o2)c2cc(C)ccc21 [Example 13, (E)-N′-[(2-chloro-1-(2-ethoxyethyl)-5-methyl-1H-indol-3-yl]methylene}-5-methylbenzofuran-2-carbohydrazide]
- inhibition at 1 µM (NF-κB [1]): ≥ 50%
- expression amount of the NF-κB gene (luciferase) (NF-κB [4]): significantly decreased

Molecule: CCOC(=O)Cn1c(C)c(/C=N/NC(=O)c2cc3cc(C)ccc3o2)c2ccccc21 [Example 21, ethyl (E)-2-(2-methyl-3-((2-(5-methylbenzofuran-2-carbonyl)hydrazinylidene)methyl)-1H-indol-1-yl)acetate]
- melting point: 186 °C

Molecule: CCOC(=O)Cn1c(C)c(/C=N/NC(=O)c2cc3cc(Cl)ccc3o2)c2ccccc21 [Example 22]
- melting point: 214 °C

Molecule: COC(=O)Cn1c(Cl)c(/C=N/NC(=O)c2cc3cc(C)ccc3o2)c2ccccc21 [Example 23, methyl (E)-2-(2-chloro-3-((2-(5-methylbenzofuran-2-carbonyl)hydrazinylidene)methyl)-1H-indol-1-yl)acetate]
- inhibition at 1 µM (NF-κB [1]): ≥ 50%
- melting point: 212 °C

Molecule: NC(=O)Nc1sc(-c2ccc(F)cc2)cc1C(N)=O [TPCA1]
- inhibition of canonical NF-κB pathway (P-p65) (P-p65 protein): acts on the canonical pathway
- inhibition of non-canonical NF-κB pathway (p100 to p52 processing) (p100 protein): not on the non-canonical pathway

Molecule: (E)-N′-[(2-chloro-1-(2-methoxyethyl)-1H-indol-3-yl]methylene}-5-methylbenzofuran-2-carbohydrazide [Example 7]
- number of inflammatory immune cells in skin [2]: reduced the number of immune cells induced by the inflammatory reaction to the extent very similar to that of the normal case treated with ethanol
